Measurements taken from PMC7582905, “Effect of Disulfide Cyclization of Ultrashort Cationic Lipopeptides on Antimicrobial Activity and Cytotoxicity” (International Journal of Molecular Sciences, 2020).
≈ marks a conversion by molar mass, not a printed value. Where a SMILES comes first, the peptide text is derived from it. The star is where a group is joined. Palmitoyl = CCCCCCCCCCCCCCCC(=O)*

Key:
[1] = test system: Candida lipolytica PCM 2680-FY; format: cell-based; details: 24 h
Method: (§1) The Staphylococcus aureus ATCC 25923, Staphylococcus epidermidis ATCC 14990, Escherichia coli ATCC 25922, Pseudomonas aeruginosa ATCC 9027, Candida albicans ATCC 10231, Candida glabrata ATCC 15126, Candida lipolytica PCM 2680-FY, and Candida tropicalis PCM 2709-FY strains were acquired from the Polish Collection of Microorganisms (PCM, Polish Academy of Sciences, Wrocław, Poland) and from the American Type Culture Collection (ATCC). All the strains were stored at −80 °C in Roti-Store cryo vials and before the tests were transferred into fresh Mueller–Hinton broth (MHB, Biocorp, Warsaw, Poland) for bacteria or RPMI-1640 (Sigma-Aldrich, Steinheim, Germany) for fungi and incubated for 24 h at 37 °C. Then, the cultures were seeded on Mueller–Hinton agar (BioMaxima, Lublin, Poland) or Sabouraud dextrose agar (SDA, BioMaxima, Lublin, Poland) plates, respectively, and incubated as just mentioned. These agar cultures were used for further microbiological assays. Cell densities for all assays were adjusted spectrophotometrically (Multiskan GO Microplate Spectrophotometer, Thermo Fisher Scientific, Vantaa, Finland) at 600 and 660 nm for bacteria and fungi, respectively.
(§2) The MICs were determined by broth microdilution method according to the Clinical and Laboratory Standard Institute guidelines For this purpose, initial inoculums of bacteria (5 × 10^5 CFU/mL) in MHB and yeasts (2 × 10^3 CFU/mL) in RPMI-1640 with 2% D-glucose were exposed to the ranging concentration of lipopeptides (0.5–256 μg/mL) and incubated at 37 °C for 18 h and 24 h, respectively. The experiments were conducted on 96-well microtiter polystyrene plates. The growth was assessed visually after incubation and the MIC was assumed as the lowest peptide concentration at which a noticeable growth of microorganisms was inhibited. All experiments were conducted in triplicate.

[2] = test system: Escherichia coli ATCC 25922; format: cell-based; details: ATCC 25922, 18 h
Method: as §1, §2

[3] = test system: Candida albicans ATCC 10231; format: cell-based; details: ATCC 10231, 24 h
Method: as §1, §2

[4] = test system: Staphylococcus epidermidis ATCC 14990; format: cell-based; details: ATCC 14990, 18 h
Method: as §1, §2

[5] = test system: Candida tropicalis PCM 2709-FY; format: cell-based; details: PCM 2709-FY, 24 h
Method: as §1, §2

[6] = test system: Candida glabrata ATCC 15126; format: cell-based; details: ATCC 15126, 24 h
Method: as §1, §2

[7] = test system: Pseudomonas aeruginosa ATCC 9027; format: cell-based; details: ATCC 9027, 18 h
Method: as §1, §2

[8] = test system: Candida lipolytica PCM 2680-FY; format: cell-based; details: 24 h; remark: listed apart in the source
Method: as §1
(§3) The assay was performed to evaluate the effect of the lipopeptides in preventing biofilm formation. The preparation of inoculums was followed by a ca. 500-fold dilution of the 24 h cultures of microorganisms. Briefly, 50 μL of the compounds in the concentration range, diluted in appropriate medium, were prepared on 96-well polystyrene flat-bottom plates. Subsequently, the 50 μL of the bacterial/fungal inoculums were added to reach the same microbial density as that in the MBEC assay. After 24 h of incubation at 37 °C, the wells were rinsed three times with PBS and the fresh media with resazurin (4 g/L) were added. The MBICs were read after 1 h. All experiments were conducted in triplicate.

[9] = test system: Escherichia coli ATCC 25922; format: cell-based; details: ATCC 25922, 24 h
Method: as §1, §3

[10] = test system: Candida albicans ATCC 10231; format: cell-based; details: ATCC 10231, 24 h; remark: listed apart in the source
Method: as §1, §3

[11] = test system: Staphylococcus aureus ATCC 25923; format: cell-based; details: ATCC 25923, 24 h
Method: as §1, §3

[12] = test system: Staphylococcus epidermidis ATCC 14990; format: cell-based; details: ATCC 14990, 24 h
Method: as §1, §3

[13] = test system: Candida tropicalis PCM 2709-FY; format: cell-based; details: PCM 2709-FY, 24 h; remark: listed apart in the source
Method: as §1, §3

[14] = test system: Candida glabrata ATCC 15126; format: cell-based; details: ATCC 15126, 24 h; remark: listed apart in the source
Method: as §1, §3

[15] = test system: Pseudomonas aeruginosa ATCC 9027; format: cell-based; details: ATCC 9027, 24 h
Method: as §1, §3

[16] = RP-HPLC determination of peptide hydrophobicity; format: physicochemical; details: RP-HPLC retention as measure of hydrophobicity; Waters X-Bridge Shield RP-18 3.0 × 100 mm, 3.5 μm; linear 20–65% acetonitrile in water over 30 min, 0.1% TFA, 0.5 mL/min, 25.0 °C, UV 214 nm; 1 g/L; triplicate
Method: The peptides were analyzed by RP-HPLC to determine relative hydrophobicity vs. retention time of each compound. In general, more hydrophobic lipopeptides will elute later than hydrophilic ones. Using this simple rule enables comparison of hydrophobicity by reduced retention times (t’R) and differences in retention time between the cyclic analog and its linear parent lipopeptide (Table 1). It can be deduced that the presence of cystine moiety has led to increased hydrophobicity. All cyclic lipopeptides are more hydrophobic than their linear counterparts but the effect of disulfide cyclization on retention is different in each pair. The highest increase in retention was noticed for the shortest lipopeptides L1 (C16-KKK-NH2) and C1 (C16-CKKKC-NH2). The differences between lipopeptides with one arginine residue indicate that its position is crucial for retention and therefore hydrophobicity. To learn how the arginine position affects hydrophobicity, the retention time of compound L2 (C16-KKKK-NH2) or C2 (C16-CKKKKC-NH2) was subtracted from that of the lipopeptides with one arginine residue, linear (L3, L4, L5, L6) or cyclic (C3, C4, C5, C6), respectively. In Figure 2 the effect of arginine position on retention time is related to unsubstituted lipopeptide.
To determine peptide hydrophobicity, a Waters Alliance e2695 system with a Waters 2998 PDA Detector (software-Empower 3, Waters, Milford, MA, USA) was used. All analyses were carried out on a Waters X-Bridge Shield RP-18 column (3.0 × 100 mm, 3.5 μm particle size, 130 Å pore size). The Shield Technology column with embedded polar groups was used to minimize interactions of unreacted silanol groups with basic lipopeptides. The peptides were dissolved in water (0.1% TFA, v/v) up to a concentration of 1 g/L. UV detection at 214 nm was used, and samples (10 μL) were eluted with a linear 20–65% acetonitrile gradient in deionized water over 30 min at 25.0 ± 0.1 °C. The mobile phase flow rate was 0.5 mL/min. Both eluents contained 0.1% (v/v) of TFA. Each peptide sample was analyzed in triplicate. Maximum standard deviation and coefficient of variation were 0.042 and 0.25%, respectively.

Compound	MIC C. lipolytica [1] [µg/mL]	MIC E. coli [2] [µg/mL]	MIC C. albicans [3] [µg/mL]	MIC S. epidermidis [4] [µg/mL]	MIC C. tropicalis [5] [µg/mL]	MIC C. glabrata [6] [µg/mL]	MIC P. aeruginosa [7] [µg/mL]	MBIC C. lipolytica [8] [µg/mL]	MBIC E. coli [9] [µg/mL]	MBIC C. albicans [10] [µg/mL]	MBIC S. aureus [11] [µg/mL]	MBIC S. epidermidis [12] [µg/mL]	MBIC C. tropicalis [13] [µg/mL]	MBIC C. glabrata [14] [µg/mL]	MBIC P. aeruginosa [15] [µg/mL]	reduced retention time t’R [16] [min]
CCCCCCCCCCCCCCCC(=O)N[C@@H](CCCNC(=N)N)C(=O)N[C@@H](CCCCN)C(=O)N[C@@H](CCCCN)C(=O)N[C@@H](CCCCN)C(N)=O [L3, C16-RKKK-NH2] (Palmitoyl-RKKK-NH2)	8 (≈ 10 µM)	8 (≈ 10 µM)	8 (≈ 10 µM)	8 (≈ 10 µM)	8 (≈ 10 µM)	64 (≈ 80.4 µM)	32 (≈ 40.2 µM)	16	32	64	32	16	16	64	64	15.21
CCCCCCCCCCCCCCCC(=O)N[C@@H](CCCCN)C(=O)N[C@@H](CCCNC(=N)N)C(=O)N[C@@H](CCCCN)C(=O)N[C@@H](CCCCN)C(N)=O [L4, C16-KRKK-NH2] (Palmitoyl-KRKK-NH2)	1 (≈ 1.26 µM)	8 (≈ 10 µM)	16 (≈ 20.1 µM)	8 (≈ 10 µM)	2 (≈ 2.51 µM)	32 (≈ 40.2 µM)	32 (≈ 40.2 µM)	16	32	32	16	8	8	64	32	15.18
CCCCCCCCCCCCCCCC(=O)N[C@@H](CCCCN)C(=O)N[C@@H](CCCCN)C(=O)N[C@@H](CCCNC(=N)N)C(=O)N[C@@H](CCCCN)C(N)=O [L5, C16-KKRK-NH2] (Palmitoyl-KKRK-NH2)	8 (≈ 10 µM)	8 (≈ 10 µM)	32 (≈ 40.2 µM)	8 (≈ 10 µM)	8 (≈ 10 µM)	64 (≈ 80.4 µM)	64 (≈ 80.4 µM)	32	32	64	32	16	16	128	64	15.01
CCCCCCCCCCCCCCCC(=O)N[C@@H](CCCCN)C(=O)N[C@@H](CCCCN)C(=O)N[C@@H](CCCCN)C(=O)N[C@@H](CCCNC(=N)N)C(N)=O [L6, C16-KKKR-NH2] (Palmitoyl-KKKR-NH2)	8 (≈ 10 µM)	8 (≈ 10 µM)	32 (≈ 40.2 µM)	4 (≈ 5.02 µM)	8 (≈ 10 µM)	64 (≈ 80.4 µM)	64 (≈ 80.4 µM)	32	32	64	32	8	16	64	64	14.89
